Organism: Rattus norvegicus
Test: DrugMatrix - Regimen: Daily Repeat
Format: toxicity, organism-based, Sprague-Dawley
Design: regimen Daily Repeat, gender Male, age 6-8 weeks
Settings: in vivo, po, route oral GAVAGE, […]; for ABSOLUTE BASOPHIL / ABSOLUTE EOSINOPHIL / ABSOLUTE LYMPHOCYTE / ABSOLUTE MONOCYTE / ABSOLUTE SEGMENTED NEUTROPHIL / BASOPHIL / EOSINOPHIL / ERYTHROCYTE COUNT / HEMATOCRIT / HEMOGLOBIN / LEUKOCYTE COUNT / LYMPHOCYTE / MEAN CORPUSCULAR HEMOGLOBIN / MEAN CORPUSCULAR HEMOGLOBIN CONCENTRATION / MEAN CORPUSCULAR VOLUME / MONOCYTE / NEUTROPHIL / NUCLEATED RED BLOOD CELLS / PLATELET COUNT: tissue Blood; for ALANINE AMINOTRANSFERASE / ALBUMIN / ALKALINE PHOSPHATASE / ASPARTATE AMINOTRANSFERASE / BLOOD UREA NITROGEN / CARBON DIOXIDE / CHLORIDE / CHOLESTEROL / CREATINE PHOSPHOKINASE / CREATININE / GLUCOSE / LACTATE DEHYDROGENASE / LIPASE / PHOSPHORUS / POTASSIUM / SODIUM / TOTAL BILIRUBIN / TOTAL PROTEIN / URIC ACID: tissue Plasma
[1] = 0 mg/kg, 72 h, dose level Control, time 3 day
[2] = 0 mg/kg, 120 h, dose level Control, time 5 day
[3] = 100 mg/kg, 72 h, dose level Low, time 3 day

For `CCn1cc(C(=O)O)c(=O)c2cc(F)c(N3CCNCC3)nc21` [ENOXACIN], the “ABSOLUTE BASOPHIL” value [1] was 0 CELLS/uL, the “ABSOLUTE EOSINOPHIL” value [1] was 104.17 CELLS/uL and the “ABSOLUTE LYMPHOCYTE” value [1] was 14547 CELLS/uL. For the same compound, the “ABSOLUTE MONOCYTE” value [1] was 292 CELLS/uL, the “ABSOLUTE SEGMENTED NEUTROPHIL” value [1] was 1640.17 CELLS/uL and the BASOPHIL [1] was 0%. The EOSINOPHIL [1] was 0.67%, the “ERYTHROCYTE COUNT” value [1] was 5.35 x10E6/uL and the HEMATOCRIT [1] was 33.67%. The HEMOGLOBIN [1] was 13.38 G/DL, the “LEUKOCYTE COUNT” value [1] was 16.58 x10E3/uL and the LYMPHOCYTE [1] was 87.5%. The “MEAN CORPUSCULAR HEMOGLOBIN” value [1] was 25.05 pg, the “MEAN CORPUSCULAR HEMOGLOBIN CONCENTRATION” value [1] was 39.78 G/DL and the “MEAN CORPUSCULAR VOLUME” value [1] was 62.97 fL. The MONOCYTE [1] was 1.83%, the NEUTROPHIL [1] was 10% and the “NUCLEATED RED BLOOD CELLS” value [1] was 0 /100WBC. The “PLATELET COUNT” value [1] was 1274.5 x10E3/uL, the “ALANINE AMINOTRANSFERASE” value [1] was 76.83 u/L and the ALBUMIN [1] was 3.97 G/DL. For the same compound, the “ALKALINE PHOSPHATASE” value [1] was 347 u/L, the “ASPARTATE AMINOTRANSFERASE” value [1] was 97.17 u/L and the “BLOOD UREA NITROGEN” value [1] was 14.33 mg/dL. The “CARBON DIOXIDE” value [1] was 25.5 mmol/L, the CHLORIDE [1] was 100.33 MEQ/L and the CHOLESTEROL [1] was 68.67 mg/dL. For the same compound, the “CREATINE PHOSPHOKINASE” value [1] was 659.17 u/L, the CREATININE [1] was 0.32 mg/dL and the GLUCOSE [1] was 160.67 mg/dL. For the same compound, the “LACTATE DEHYDROGENASE” value [1] was 271.5 u/L, the LIPASE [1] was 11.67 u/L and the PHOSPHORUS [1] was 10.65 mg/dL. For the same compound, the POTASSIUM [1] was 5.95 MEQ/L, the SODIUM [1] was 139.65 MEQ/L and the “TOTAL BILIRUBIN” value [1] was 0.2 mg/dL. For the same compound, the “TOTAL PROTEIN” value [1] was 5.72 G/DL, the “URIC ACID” value [1] was 1.37 mg/dL and the “ABSOLUTE BASOPHIL” value [2] was 0 CELLS/uL. For the same compound, the “ABSOLUTE EOSINOPHIL” value [2] was 331.5 CELLS/uL, the “ABSOLUTE LYMPHOCYTE” value [2] was 15021.67 CELLS/uL and the “ABSOLUTE MONOCYTE” value [2] was 376.5 CELLS/uL. The “ABSOLUTE SEGMENTED NEUTROPHIL” value [2] was 3070.33 CELLS/uL, the BASOPHIL [2] was 0% and the EOSINOPHIL [2] was 1.83%. The “ERYTHROCYTE COUNT” value [2] was 5.24 x10E6/uL, the HEMATOCRIT [2] was 33.22% and the HEMOGLOBIN [2] was 13.2 G/DL. For the same compound, the “LEUKOCYTE COUNT” value [2] was 18.8 x10E3/uL, the LYMPHOCYTE [2] was 79.67% and the “MEAN CORPUSCULAR HEMOGLOBIN” value [2] was 25.17 pg. For the same compound, the “MEAN CORPUSCULAR HEMOGLOBIN CONCENTRATION” value [2] was 39.73 G/DL, the “MEAN CORPUSCULAR VOLUME” value [2] was 63.38 fL and the MONOCYTE [2] was 2%. For the same compound, the NEUTROPHIL [2] was 16.5%, the “NUCLEATED RED BLOOD CELLS” value [2] was 0 /100WBC and the “PLATELET COUNT” value [2] was 1142.67 x10E3/uL. For the same compound, the “ALANINE AMINOTRANSFERASE” value [2] was 52.5 u/L, the ALBUMIN [2] was 3.9 G/DL and the “ALKALINE PHOSPHATASE” value [2] was 284.5 u/L. For the same compound, the “ASPARTATE AMINOTRANSFERASE” value [2] was 81.33 u/L, the “BLOOD UREA NITROGEN” value [2] was 16 mg/dL and the “CARBON DIOXIDE” value [2] was 25.33 mmol/L. The CHLORIDE [2] was 99.5 MEQ/L, the CHOLESTEROL [2] was 74.83 mg/dL and the “CREATINE PHOSPHOKINASE” value [2] was 448.33 u/L. For the same compound, the CREATININE [2] was 0.37 mg/dL, the GLUCOSE [2] was 164.17 mg/dL and the “LACTATE DEHYDROGENASE” value [2] was 290.67 u/L. The LIPASE [2] was 6.83 u/L, the PHOSPHORUS [2] was 11.5 mg/dL and the POTASSIUM [2] was 6.28 MEQ/L. For the same compound, the SODIUM [2] was 139.5 MEQ/L, the “TOTAL BILIRUBIN” value [2] was 0.13 mg/dL and the “TOTAL PROTEIN” value [2] was 5.55 G/DL. The “URIC ACID” value [2] was 1.12 mg/dL, the “ABSOLUTE BASOPHIL” value [3] was 0 CELLS/uL and the “ABSOLUTE EOSINOPHIL” value [3] was 0 CELLS/uL. The “ABSOLUTE LYMPHOCYTE” value [3] was 5797 CELLS/uL, the “ABSOLUTE MONOCYTE” value [3] was 86.67 CELLS/uL and the “ABSOLUTE SEGMENTED NEUTROPHIL” value [3] was 549.67 CELLS/uL. For the same compound, the BASOPHIL [3] was 0%, the EOSINOPHIL [3] was 0% and the “ERYTHROCYTE COUNT” value [3] was 5.41 x10E6/uL. The HEMATOCRIT [3] was 34.57%, the HEMOGLOBIN [3] was 13.57 G/DL and the “LEUKOCYTE COUNT” value [3] was 6.43 x10E3/uL. The LYMPHOCYTE [3] was 90%, the “MEAN CORPUSCULAR HEMOGLOBIN” value [3] was 25.13 pg and the “MEAN CORPUSCULAR HEMOGLOBIN CONCENTRATION” value [3] was 39.27 G/DL. For the same compound, the “MEAN CORPUSCULAR VOLUME” value [3] was 64.03 fL, the MONOCYTE [3] was 1.33% and the NEUTROPHIL [3] was 8.67%. The “NUCLEATED RED BLOOD CELLS” value [3] was 0 /100WBC, the “PLATELET COUNT” value [3] was 1201 x10E3/uL and the “ALANINE AMINOTRANSFERASE” value [3] was 52.33 u/L. The ALBUMIN [3] was 3.9 G/DL, the “ALKALINE PHOSPHATASE” value [3] was 346.33 u/L and the “ASPARTATE AMINOTRANSFERASE” value [3] was 78 u/L. For the same compound, the “BLOOD UREA NITROGEN” value [3] was 14 mg/dL, the “CARBON DIOXIDE” value [3] was 24.67 mmol/L and the CHLORIDE [3] was 103 MEQ/L. For the same compound, the CHOLESTEROL [3] was 70.33 mg/dL, the “CREATINE PHOSPHOKINASE” value [3] was 221.67 u/L and the CREATININE [3] was 0.12 mg/dL. For the same compound, the GLUCOSE [3] was 172.67 mg/dL, the “LACTATE DEHYDROGENASE” value [3] was 139.33 u/L and the LIPASE [3] was 10 u/L. It also gave a PHOSPHORUS [3] of 11.1 mg/dL, a POTASSIUM [3] of 5.8 MEQ/L and an SODIUM [3] of 142.37 MEQ/L. For the same compound, the “TOTAL BILIRUBIN” value [3] was 0.13 mg/dL, the “TOTAL PROTEIN” value [3] was 5.57 G/DL and the “URIC ACID” value [3] was 1.63 mg/dL.
